This is an account of results in US20050026977A1, “Zonisamide use in eating disorders” (priority 2002, published 2005).

The test system of data set [1] is cultured mouse spinal cord neurons. The following applies: 10-30 μg/mL; cited from earlier work.
The test system of another data set is patients. The following applies: patients treated with zonisamide; cited from earlier work.
For a further data set, the system named is rats. The following applies: cortical application of tungstic acid gel in rats; cited from earlier work.
For data set [2], the system named is GABA/benzodiazepine receptor ionophore complex. The following applies: in vitro; cited from earlier work.
Data set [3] deals with cats. The following applies: cortical freezing in cats; cited from earlier work.
The next data set deals with rat hippocampal slices. The following applies: 10-30 μg/mL; cited from earlier work.
Data set [4] has as its system cats. The following applies: electrical stimulation of the visual cortex; cited from earlier work.
For another data set, the system named is beagle dogs. The following applies: dog, in vivo, 75 mg/kg/day; cited from earlier work.
The subject of data set [5] is obese subjects (BMI of 30-44 kg/m^2). Put plainly: 16-week randomized, double-blind, placebo-controlled trial of zonisamide in obesity. The data set is classed as in vivo, human. As for the experimental part:
Objective: Short-term efficacy and safety of zonisamide in the treatment of obesity was evaluated. Inclusion Criteria: (1) Age 21-50; (2) BMI of 30-44 kg/m^2; and (3) Otherwise healthy as determined by the principal investigator. […] Method: 60 subjects were assigned to receive zonisamide or placebo (1:1 ratio) in a randomized, double-blind fashion for 16 weeks in addition to a slightly hypocaloric (500 kcal/day deficit) diet. Zonisamide dosing was flexible with a maximum of 600 mg/day. Zonisamide was started at 100 mg/d. Based on tolerability, the dose was titrated up as follows: Weeks 3-4: 200 mg/d; Weeks 5-6: 300 mg/d; Weeks 7-12: 400 mg/d. At the end of week 12, for those where at least 5% weight loss was not achieved, the dose was further increased to 600 mg/d. The entire dose is given at bedtime. However, based on tolerability, a part of the daily dose may be given in the morning.

In the next data set the test system is kindled rat model. The following applies: in vivo; cited from earlier work.
For data set [6] the following is noted: in vivo; cited from earlier work.
For data set [7] the following is noted: preliminary studies; cited from earlier work.

`NS(=O)(=O)Cc1noc2ccccc12` [zonisamide, 1,2-benzisoxazole-3-methanesulfonamide]: in data set [1], the “effect on postsynaptic GABA or glutamate responses” value is reported as “without affecting postsynaptic GABA or glutamate responses” and the “effect on synaptically-driven electrical activity” value is “suppresses synaptically-driven electrical activity”. Besides, in the data set with patients, the “course of weight loss over time” value is reported as “the weight loss did not continue over time” and the “weight loss as adverse event” value is on record as “weight loss was an adverse event”. Further, the “interictal spikes and secondarily generalized seizures” value in the data set with rats is “suppresses both interictal spikes and the secondarily generalized seizures”. Moreover, the “binding to GABA/benzodiazepine receptor ionophore complex” value in [2] was “binds to the GABA/benzodiazepine receptor ionophore complex in an allosteric fashion which does not produce changes in chloride flux”. Moreover, in the data set with cats [3], the “interictal spikes and secondarily generalized seizures” value was “suppresses both interictal spikes and the secondarily generalized seizures”. Also, the “effect on neuronal or glial uptake of [^3H]-GABA” value in the data set on rat hippocampal slices is “without affecting”. The “duration of cortical focal seizures” value in the data set on cats [4] was “reduced the duration of cortical focal seizures”. The “body weight change in chronic toxicity test” value in the data set on beagle dogs is recorded as “early body weight losses occurred”. In data set [5] (16-week period, all randomized subjects, last observation carried forward, flexible dosing, maximum 600 mg/day, plus hypocaloric diet, p<0.0001 vs placebo), the average bodyweight lost is listed as 5.98%. Moreover, in data set [5] (16-week study duration, effects for age, race, gender, BMI, percent body fat, p<0.0001), the “greater weight loss over placebo treatment (random coefficient regression estimate)” value was 4.99 kg. Also, the “efficacy versus placebo as adjunct to hypocaloric diet in treatment of obesity” value in [5] (16 weeks) is “significantly more effective than placebo”. Moreover, the “tolerability / side effects” value in [5] (16 weeks, up to 600 mg/day) is given as “tolerated well with minimal side effects”. The “subjects who lost ≥5% weight” value in data set [5] (16 weeks, responders/subjects in group, p<0.0003 vs placebo) is given as 17/30. Moreover, the “anticonvulsant activity in threshold for generalized seizures” value in the data set on kindled rat model is “demonstrated an anticonvulsant activity”. For the same molecule, in data set [6], the “adverse effect on appetite” value is on record as “loss of appetite as an adverse effect”.
As to `CC1(C)O[C@@H]2[C@@H](CO[C@@]3(COS(N)(=O)=O)OC(C)(C)O[C@@H]23)O1` [topiramate], the “effect on appetite and binging” value in [7] is “suppress the appetite and to reduce the amount of binging”.
